Assay results taken from ChEMBL document CHEMBL2150984, “Synthesis of fluorescent ristocetin aglycon derivatives with remarkable antibacterial and antiviral activities” (Eur J Med Chem, 2012).
Converted amounts (≈) assume the structure as drawn.

Legend:
[1] = tested on: H3N2 subtype; test: Antiviral activity against Influenza A/HK/7/87 infected in MDCK cells assessed as inhibition of virus-induced cytopathic effect measured on day 3 post infection by MTS assay; format: functional, organism-based; conditions: A/Hong Kong/7/1987(H3N2), 72 h
[2] = tested on: Influenza A virus; test: Antiviral activity against Influenza A/PR/8/34 infected in MDCK cells assessed as inhibition of virus-induced cytopathic effect measured on day 3 post infection by MTS assay; format: functional, organism-based; conditions: A/Puerto Rico/8/1934(H1N1), 72 h
[3] = Cytotoxicity against MDCK cells assessed as minimum concentration required to cause microscopically detectable alteration measured on day 3 post infection by MTS assay; format: cell-based, Canis lupus familiaris; conditions: dog
[4] = tested on: Enterococcus faecalis; test: Antibacterial activity against Enterococcus faecalis ATCC 51299 expressing vanB gene by broth microdilution method; format: functional
[5] = tested on: Enterococcus faecalis; test: Antibacterial activity against Enterococcus faecalis ATCC 29212 by broth microdilution method; format: functional
[6] = tested on: Enterococcus faecalis; test: Antibacterial activity against Enterococcus faecalis ATCC 15376 expressing vanA gene by broth microdilution method; format: functional
[7] = tested on: Staphylococcus epidermidis; test: Antibacterial activity against Staphylococcus epidermidis expressing mecA gene by broth microdilution method; format: functional
[8] = tested on: Influenza B virus; test: Antiviral activity against Influenza B/HK/5/72 infected in MDCK cells assessed as inhibition of virus-induced cytopathic effect measured on day 3 post infection by MTS assay; format: functional, cell-based; conditions: B/Hong Kong/05/1972, MDCK, 72 h
[9] = tested on: Staphylococcus epidermidis; test: Antibacterial activity against biofilm forming Staphylococcus epidermidis ATCC 35984 by broth microdilution method; format: functional
[10] = tested on: Staphylococcus aureus; test: Antibacterial activity against methicillin-resistant Staphylococcus aureus ATCC 33591 by broth microdilution method; format: functional
[11] = tested on: Bacillus subtilis; test: Antibacterial activity against Bacillus subtilis ATCC 6633 by broth microdilution method; format: functional
[12] = tested on: Staphylococcus aureus; test: Antibacterial activity against methicillin-sensitive Staphylococcus aureus ATCC 29213 by broth microdilution method; format: functional

SMILES	EC50 [1] [nM]	EC50 [2] [nM]	MCC at 3 days [3] [µM]	MIC [4] [µg/mL]	MIC [5] [µg/mL]	MIC [6] [µg/mL]	MIC [7] [µg/mL]	EC50 [8] [µM]	MIC [9] [µg/mL]	MIC [10] [µg/mL]	MIC [11] [µg/mL]	MIC [12] [µg/mL]
NC(=O)c1ncn([C@@H]2O[C@H](CO)[C@@H](O)[C@H]2O)n1 [RIBAVIRIN]	8900	6800	≥ 20									
COC(=O)[C@H]1NC(=O)[C@H]2NC(=O)[C@H](NC(=O)[C@@H]3NC(=O)[C@H]4NC(=O)[C@H](NC(=O)[C@H](n5cc6ccccc6c5Sc5ccccc5)c5ccc(O)c(c5)Oc5cc4cc(O)c5C)[C@H](O)c4ccc(cc4)Oc4cc3cc(c4O)Oc3ccc(cc3)[C@H]2O)c2ccc(O)c(c2)-c2c(O)cc(O)cc21	680	670	6.4	1 (≈ 0.723 µM)	2 (≈ 1.45 µM)	4 (≈ 2.89 µM)	1 (≈ 0.723 µM)	1.4	0.5 (≈ 0.362 µM)	1 (≈ 0.723 µM)	2 (≈ 1.45 µM)	1 (≈ 0.723 µM)
CC(=O)N[C@H]1[C@H]([C@H](O)[C@H](O)CO)OC(C(=O)O)=C[C@@H]1NC(=N)N [ZANAMIVIR]	1800	300	> 100					34				
COC(=O)[C@H]1NC(=O)[C@H]2NC(=O)[C@H](NC(=O)[C@@H]3NC(=O)[C@H]4NC(=O)[C@H](NC(=O)[C@H](n5cc6ccccc6c5S[C@@H]5O[C@H](COC(C)=O)[C@@H](OC(C)=O)[C@H](OC(C)=O)[C@H]5NC(C)=O)c5ccc(O)c(c5)Oc5cc4cc(O)c5C)[C@H](O)c4ccc(cc4)Oc4cc3cc(c4O)Oc3ccc(cc3)[C@H]2O)c2ccc(O)c(c2)-c2c(O)cc(O)cc21	1800	1800	20	4 (≈ 2.45 µM)	4 (≈ 2.45 µM)	4 (≈ 2.45 µM)	4 (≈ 2.45 µM)	> 100	4 (≈ 2.45 µM)	4 (≈ 2.45 µM)	8 (≈ 4.89 µM)	4 (≈ 2.45 µM)
Cc1c(O)cc2cc1Oc1cc(ccc1O)[C@@H](N)C(=O)N[C@H]1C(=O)N[C@@H]2C(=O)N[C@H]2C(=O)N[C@H]3C(=O)N[C@H](C(=O)N[C@@H](C(=O)O)c4cc(O)cc(O[C@H]5O[C@H](CO)[C@@H](O)[C@H](O)[C@@H]5O)c4-c4cc3ccc4O)[C@H](O[C@H]3C[C@@H](N)[C@@H](O)[C@H](C)O3)c3ccc(cc3)Oc3cc2cc(c3O[C@H]2O[C@@H](CO[C@H]3O[C@H](C)[C@@H](O)[C@H](O)[C@@H]3O)[C@H](O)[C@@H](O)[C@@H]2O[C@H]2O[C@H](CO)[C@@H](O)[C@H](O)[C@@H]2O[C@H]2O[C@H](CO)[C@@H](O)[C@@H]2O)Oc2ccc(cc2)[C@H]1O [RISTOCETIN]				256 (≈ 125 µM)	4 (≈ 1.95 µM)	16 (≈ 7.79 µM)	128 (≈ 62.3 µM)		2 (≈ 0.974 µM)	32 (≈ 15.6 µM)	16 (≈ 7.79 µM)	128 (≈ 62.3 µM)
COC(=O)[C@H]1NC(=O)[C@H]2NC(=O)[C@H](NC(=O)[C@@H]3NC(=O)[C@H]4NC(=O)[C@H](NC(=O)[C@H](n5cc6cc7ccccc7cc6c5Sc5ncccn5)c5ccc(O)c(c5)Oc5cc4cc(O)c5C)[C@H](O)c4ccc(cc4)Oc4cc3cc(c4O)Oc3ccc(cc3)[C@H]2O)c2ccc(O)c(c2)-c2c(O)cc(O)cc21	360	80	≥ 0.8	2 (≈ 1.39 µM)	2 (≈ 1.39 µM)	2 (≈ 1.39 µM)	2 (≈ 1.39 µM)	> 100	4 (≈ 2.79 µM)	2 (≈ 1.39 µM)	2 (≈ 1.39 µM)	2 (≈ 1.39 µM)
NC12CC3CC(CC(C3)C1)C2 [AMANTADINE]	2300	7600	> 500					> 500				
CN[C@H](CC(C)C)C(=O)N[C@H]1C(=O)N[C@@H](CC(N)=O)C(=O)N[C@H]2C(=O)N[C@H]3C(=O)N[C@H](C(=O)N[C@H](C(=O)O)c4cc(O)cc(O)c4-c4cc3ccc4O)[C@H](O)c3ccc(c(Cl)c3)Oc3cc2cc(c3O[C@@H]2O[C@H](CO)[C@@H](O)[C@H](O)[C@H]2O[C@H]2C[C@](C)(N)[C@H](O)[C@H](C)O2)Oc2ccc(cc2Cl)[C@H]1O [VANCOMYCIN]				128 (≈ 88.3 µM)	1 (≈ 0.69 µM)	256 (≈ 177 µM)					0.5 (≈ 0.345 µM)	
COC(=O)[C@H]1NC(=O)[C@H]2NC(=O)[C@H](NC(=O)[C@@H]3NC(=O)[C@H]4NC(=O)[C@H](NC(=O)[C@H](n5cc6ccccc6c5S[C@@H]5O[C@H](CO)[C@@H](O)[C@H](O)[C@H]5O)c5ccc(O)c(c5)Oc5cc4cc(O)c5C)[C@H](O)c4ccc(cc4)Oc4cc3cc(c4O)Oc3ccc(cc3)[C@H]2O)c2ccc(O)c(c2)-c2c(O)cc(O)cc21	2300	270	20	2 (≈ 1.36 µM)	1 (≈ 0.681 µM)	1 (≈ 0.681 µM)	1 (≈ 0.681 µM)	> 100	4 (≈ 2.72 µM)	1 (≈ 0.681 µM)	2 (≈ 1.36 µM)	1 (≈ 0.681 µM)
COC(=O)[C@H]1NC(=O)[C@H]2NC(=O)[C@H](NC(=O)[C@@H]3NC(=O)[C@H]4NC(=O)[C@H](NC(=O)[C@H](n5cc6ccccc6c5Sc5ncccn5)c5ccc(O)c(c5)Oc5cc4cc(O)c5C)[C@H](O)c4ccc(cc4)Oc4cc3cc(c4O)Oc3ccc(cc3)[C@H]2O)c2ccc(O)c(c2)-c2c(O)cc(O)cc21	1800	300	20	0.5 (≈ 0.361 µM)	0.5 (≈ 0.361 µM)	0.5 (≈ 0.361 µM)	0.5 (≈ 0.361 µM)	> 100	2 (≈ 1.44 µM)	1 (≈ 0.722 µM)	0.5 (≈ 0.361 µM)	1 (≈ 0.722 µM)
COC(=O)[C@H]1NC(=O)[C@H]2NC(=O)[C@H](NC(=O)[C@@H]3NC(=O)[C@H]4NC(=O)[C@H](NC(=O)[C@H](n5cc6ccccc6c5S[C@@H]5O[C@H](COC(C)=O)[C@@H](OC(C)=O)[C@H](OC(C)=O)[C@H]5OC(C)=O)c5ccc(O)c(c5)Oc5cc4cc(O)c5C)[C@H](O)c4ccc(cc4)Oc4cc3cc(c4O)Oc3ccc(cc3)[C@H]2O)c2ccc(O)c(c2)-c2c(O)cc(O)cc21	72	160	≥ 4	8 (≈ 4.89 µM)	2 (≈ 1.22 µM)	8 (≈ 4.89 µM)	4 (≈ 2.44 µM)	> 100	1 (≈ 0.611 µM)	1 (≈ 0.611 µM)	8 (≈ 4.89 µM)	2 (≈ 1.22 µM)
COC(=O)[C@H]1NC(=O)[C@H]2NC(=O)[C@H](NC(=O)[C@@H]3NC(=O)[C@H]4NC(=O)[C@H](NC(=O)[C@H](n5cc6ccccc6c5Sc5nc6ccccc6s5)c5ccc(O)c(c5)Oc5cc4cc(O)c5C)[C@H](O)c4ccc(cc4)Oc4cc3cc(c4O)Oc3ccc(cc3)[C@H]2O)c2ccc(O)c(c2)-c2c(O)cc(O)cc21	4000	1400	20	2 (≈ 1.39 µM)	0.5 (≈ 0.347 µM)	1 (≈ 0.695 µM)	1 (≈ 0.695 µM)	8.9	2 (≈ 1.39 µM)	0.5 (≈ 0.347 µM)	2 (≈ 1.39 µM)	1 (≈ 0.695 µM)
COC(=O)[C@H]1NC(=O)[C@H]2NC(=O)[C@H](NC(=O)[C@@H]3NC(=O)[C@H]4NC(=O)[C@H](NC(=O)[C@H](n5cc6cc7ccccc7cc6c5Sc5ccccc5)c5ccc(O)c(c5)Oc5cc4cc(O)c5C)[C@H](O)c4ccc(cc4)Oc4cc3cc(c4O)Oc3ccc(cc3)[C@H]2O)c2ccc(O)c(c2)-c2c(O)cc(O)cc21	> 100000	> 100000	20	0.5 (≈ 0.349 µM)	0.5 (≈ 0.349 µM)	0.5 (≈ 0.349 µM)	1 (≈ 0.698 µM)	> 100	1 (≈ 0.698 µM)	0.5 (≈ 0.349 µM)	0.5 (≈ 0.349 µM)	0.5 (≈ 0.349 µM)
COC(=O)[C@H]1NC(=O)[C@H]2NC(=O)[C@H](NC(=O)[C@@H]3NC(=O)[C@H]4NC(=O)[C@H](NC(=O)[C@H](N)c5ccc(O)c(c5)Oc5cc4cc(O)c5C)[C@H](O)c4ccc(cc4)Oc4cc3cc(c4O)Oc3ccc(cc3)[C@H]2O)c2ccc(O)c(c2)-c2c(O)cc(O)cc21 [AGLYCORISTOCETIN]	6800	2300	> 100					> 100				
